Reference: US20030219831A1, “Split-hybrid system” (priority 2002, published 2003)

Key:
Assay type in all cases: cell-based
[1] = system: interactions between RAR and IDII; assay: Two-hybrid reporter assay, VP16-RAR and Gal4N-IDII co-expressed with Gal-TK-Luc; settings: 1 mM retinoid acid; VP16-RAR + Gal4N-IDII, Gal-TK-Luc; ~120 fold without compound
Description: Two fusion proteins, VP16-RAR and Gal4N-IDII, were co-expressed in a cell containing a Gal-TK-Luc reporter gene construct. Unexpectedly, interactions between RAR and IDII led to a ˜120 fold induction of the reporter gene activity. In contrast, in the presence of 1 mM retinoid acid, interactions of IDII with RAR were blocked and induction of the reporter gene activity was reduced to only ˜7 fold.

[2] = system: interactions between RAR and IDII; assay: Retinoid acid split-hybrid system, NLS-HA-Mad-RAR and Gal4N-IDII with Gal-TK-Luc; set-up: dose or concentration left out as unconfirmed; settings: Gal-TK-Luc, ~7.5 fold repression without compound
Source text: (§1) Next, two fusion proteins, NLS (nuclear localization signal)-HA (hemagglutinin)-Mad-RAR and Gal4N-IDII, were co-expressed in a cell containing a Gal-TK-Luc reporter gene construct. Unexpectedly, interactions between RAR and IDII led to a ˜7.5 fold repression of the reporter gene activity.

Gal-TK-Luc = assay: Specificity control, Gal-TK-Luc by itself or with co-transfection controls; settings: Gal-TK-Luc by itself or with controls Gal4N-Mad, Gal4N-IDII and NLS-HA-Mad-RAR
Source text: as §1

[3] = system: interactions of Gal4N-IDII with SMRT-RAR; assay: Split-hybrid system, SMRT-RAR and Gal4N-IDII with Gal-RSV-Luc; settings: Gal-RSV-Luc, 8.5-fold repression without compound
Source text: Next, two fusion proteins, SMRT-RAR and Gal4N-IDII, were co-expressed in a cell containing a Gal-RSV-Luc reporter gene construct. Unexpectedly, interactions of Gal4N-IDII with SMRT-RAR conferred 8.5-fold repression. This repression was reversed by retinoid acid treatment.

RAR and IDI1 = assay: Split-hybrid system with RED1 reporter, RAR and IDII; settings: in the presence of retinoid acid

With `CC1=C(/C=C/C(C)=C/C=C/C(C)=C/C(=O)O)C(C)(C)CCC1` [retinoid acid] the “induction of the reporter gene activity” value [1] was ~7 fold, the “reversal of repression of the reporter gene activity” value [2] was “completely reversed” and the “alteration of reporter gene activity of Gal-TK-Luc” value (Gal-TK-Luc) was “did not significantly alter”. For the same molecule, the “reversal of repression of the reporter gene” value [3] was “reversed” and the “red fluorescence from RED1 reporter” value (RAR and IDI1) was “detected”.
